Here are results for seven compounds from patent US12139461B1, “Piperidine compounds as PDE5 inhibitors” (KING SAUD UNIVERSITY, priority 2024, dated 2024).

The target in data set [1] is Phosphodiesterase type 5 (PDE5) (Homo sapiens (Human), UniProt O76074). The experiment in a line: In vitro phosphodiesterase type 5 (PDE5) inhibition assay. The following applies: purified PDE5, IMAP FP assay. In kind it is biochemical.
The test system of the next data set is male rats. Nature of the data set: Copulatory behavior testing. The following applies: 5 mg/kg oral; for copulatory efficiency (CE): CE=(IF/MF)x100; for mean intromission interval (MII): MII=EL/IF. It counts as in vivo, rat. On the procedure: Sexually mature Wistar albino male and female rats weighing 150-180 g (10-14 weeks old) were used in our study. Males were trained for sexual behavior with estrus females, that is, two hours a day for one week, before the investigations. Females were brought into the estrous phase artificially by sequential injection of estradiol benzoate (Sigma) (25 μg/animal) and progesterone (Sigma) (250 μg/animal) subcutaneously, 48 and 4 hours before pairing, respectively. Only those sexually active animals were used subsequently in the study. Sexually active rats were isolated and housed in separate cages at room temperature (24±2° C.) on a reversed day/night cycle with a relative humidity of 50-55% during the experimental period. All sexual studies were performed in a calm laboratory condition under subdued light. For the toxicity study, adult Wistar albino male rats were used separately. Rats were obtained from the Experimental Animal Care Center, College of Pharmacy, King Saud University. Animals were fed with a standard pellet diet and provided water ad libitum. All experiments were performed per the protocols and recommendations of the NIH Guide for the Care and Use of Laboratory Animals and the legal requirements of King Saud University for investigations on humans and animals.
Based on a preliminary study to select the appropriate dose for the promising synthesized compounds, the compounds were administered separately to sexually experienced male rats by oral gavage at 5 mg/kg in a 0.5% sodium carboxymethyl cellulose (CMC) vehicle. […] All solutions were freshly prepared at a concentration that allowed the administration of 1 ml/kg.
After drug treatment, rats were housed separately in transparent cages for acclimation. Thirty minutes after drug treatment, a sexually receptive female rat with estrous phase was introduced in each cage for 30 min and the following parameters of the copulatory behavior were recorded: namely mount latency (ML; time from introduction of the female until the first mount with or without penile insertion, it measures the degree of arousal or sexual interest or libido of the male), mount frequency (MF; the number of mounts until ejaculation, it is a measure of the degree of the male's sexual interest or libido), intromission latency (IL; time from introduction of the female until the first intromission, it measures the degree of sexual excitement and erection), intromission frequency (IF; number of vaginal penetrations until ejaculation, it measures the degree of erection), ejaculation latency (EL; time from the first intromission until ejaculation, it determines the excellent organization of copulation in rats) and post-ejaculatory interval (PEI; time interval between an ejaculation and the following first mount, it measures the refractory period that comes after ejaculation). Latency values represent the number of seconds that elapses from the introduction of the female into the copulatory arena until the male executes the first mount, intromission or ejaculation. Frequency values represent the number of ejaculations, mounts or intromission recorded during the copulatory test.
Depending on these parameters, the following can be calculated: Copulatory efficiency (CE)=(IF/MF)×100 and mean intromission interval (MII)=EL/IF as previously described (Aydogan F. et al., J Ethnopharmacol 257 (2020) 112868; Besong E B. et al., Biochem Res Int 2018 (2018) 2869727, the contents of each of which are hereby incorporated by reference in their entirety). Experiments were repeated blindly three times using new fresh (unused) animals in each experiment.

In the next data set the test system is male diabetic rats. The experiment in a line: Copulatory behavior testing in diabetic animals. In kind it is in vivo, rat. The following applies: 5 mg/kg/day for 14 days. On the procedure: Nearly 90% of the population suffering from diabetic conditions report disturbances in sexual function, encompassing a decrease in libido, impotence and infertility (Kamenov Z A, Exp Clin Endocrinol Diabetes 123 (2015) 141-158). Diabetic was induced in experimental animals by intraperitoneal administration of streptozotocin in separate groups of male animals. Diabetes was induced by a single intraperitoneal injection of freshly prepared 65 mg/kg streptozotocin in […] citrate buffer, pH 4.4 (Mendez J D and Ramos H G, Arch Med Res 25 (1994) 367-375). All rats receiving streptozotocin were given a 10% sucrose solution in the first 48 h after injection to prevent hypoglycemia. After 72 h of streptozotocin administration, rats with fasting serum glucose more than 350 mg/dL were considered as diabetic. Glibenclamide was given by oral gavage once a day (10 mg/kg/day) to diabetic animals to avoid mortality throughout the investigation (Abdel-Aziz A A-M. et al., Eur J Med Chem 46 (2011) 4324-4329). The male rats were trained for sexual behavior study before induction of diabetes and treatment, as mentioned above. Diabetic rats were given a daily oral dose of 5 mg/kg of compounds C9, C14 and C21 for 14 consecutive days. The sexual behavior of the animals was assessed on day 15 of the treatment. The copulatory behavior testing was performed, and CE and MII were calculated.

The subject of data set [2] is sexually experienced male rats. Nature of the data set: Penile erection index (noncontact erection test). It counts as in vivo, rat. To be noted: for ED50: Rattus norvegicus, linear regression of proportion of responding rats, read-out: effective dose ED50 (dose required to give 50% responding rats); for ED50 / penile erection index (PEI): oral. On the procedure: The penile erection index is an established means of determining the erection promoting properties of a substance. Determination of penile erection in a noncontact position was calculated as reported previously (Haripriya V M. et al., Andrologia 51 (2019) e13180; Sharma V. et al., J Ethnopharmacol 143 (2012) 201-206, the contents of each of which are hereby incorporated by reference in their entirety). The sexually experienced male rats of all groups were given the treatment 30 minutes before experimentation. The number of animals for each dose was ten rats in each experiment. […] The results shown are the average of three separate experiments. Control animals were given 0.5% CMC as a vehicle.
The rats of each group were placed in the observation cages (five at a time) divided into half by two sheets of metal mesh, preventing contact but allowing auditory, visual and olfactory stimuli. After a 5-min adaptation period, the test was started by placing an estrus female on the other side of the cage. Penile erection was recorded when the rats bent down to lick their erect penis. Homosexual mounting was also counted when a male rat mounted another male rat performing pelvic thrusts with or without a penile erection. […] The effective dose ED50 (the dose required to give 50% responding rats) for examined compounds was calculated using linear regression analysis by GraphPad software with the proportion of responding rats as the input data and expressed as μmol/kg.

The nature of data set [3]: Evaluation of LD50 (acute oral toxicity). In kind it is in vivo. The following applies: rat, in vivo, po; single intragastric administration, rats, 24 h. The text has this: (§1) Healthy rats were divided into groups of 10 rats and maintained as described above. Rats had free access to water and food, except for a short fasting period before the treatment with the single oral dose of compounds C9, C14 and C21 or the solvent. The compounds were formulated with 1% CMC. An approximate LD50 was initially determined in a pilot study by a so called ‘staircase method’ using a small number of animals (2 each dose) and increasing doses of tested compounds. Three doses were then chosen for the determination of oral median lethal dose (LDso) (500, 1000 and 2000 mg/kg) and given to three groups of rats (10 in each group). Another group of rats (6 rats) was given equal amounts of 1% CMC orally and served as a control group. […] After 24 hours, the number of dead rats was counted in each group. The percentage of animals that had died at each dose level was transformed to probits, and then LD50 was determined by the method of Miller and Tainter, 1944 as described previously (Randhawa M A, J Ayub Med Coll Abbottabad 21 (2009) 184-185, the contents of which are hereby incorporated by reference in their entirety).

In the next data set the test system is rats. The experiment in a line: Evaluation of LD50 (acute oral toxicity). It counts as in vivo. The following applies: single oral dose 500-2000 mg/kg.
Description: as §1

Values joined by “and” are separate entries in the source; they are usually repeats but may differ in a detail not shown here. Equal values may be shown once. Where only a bound is given, the exact number is not on record here.

By IC50 is commonly meant the concentration needed to halve the response being measured. In general, melting point refers to the temperature, or range, at which the solid turns liquid. `COc1ccc(S(=O)(=O)N2CCC(c3ccccc3)CC2)c(OC)c1` [Compound C1, 1-((2,4-Dimethoxyphenyl)sulfonyl)-4-phenylpiperidine] displayed a melting point of 191 to 193 °C. In addition, in data set [1], the midpoint of inhibition, the IC50, lay at 106 ± 2.07 nM.
The like results for `O=S(=O)(c1ccc(Cl)c(Cl)c1)N1CCC(Cc2ccccc2)CC1` [Compound C19, 4-Benzyl-1-((3,4-dichlorophenyl)sulfonyl)piperidine] were, in that order, 166 to 168 °C and 102 ± 1.99 nM.
`COc1ccccc1S(=O)(=O)N1CCC(Cc2ccccc2)CC1` [Compound C23, 4-Benzyl-1-((2-methoxyphenyl)sulfonyl)piperidine] came in with a melting point of 95 to 97 °C. In data set [1], this compound registered an IC50 of 207 ± 4.03 nM.
One may read the ED50 as the dose that gives a 50% effect, or the effect in half of the subjects. As usually defined, the LD50 is the dose expected to kill half of the subjects tested. Read a low LD50 as greater toxicity. In data set [1], `O=S(=O)(c1ccc(Cl)cc1Cl)N1CCC(Cc2ccccc2)CC1` [Compound C21, 4-Benzyl-1-((2,4-dichlorophenyl)sulfonyl)piperidine] showed an IC50 of 41.2 nM. In the data set with male rats, the “efficacy in improving copulatory behavior” value is “more pronounced”, the “ejaculation latency (EL)” value came out at 395.0 s, the “intromission frequency (IF)” value is given as 16.8 and the “intromission latency (IL)” value came to 178.6 s. Moreover, in the data set with male rats, the “mount frequency (MF)” value stood at 26.6, the “mount latency (ML)” value was found to be 72.5 s, the “post-ejaculatory interval (PEI)” value came to 298.0 s and the “copulatory efficiency (CE)” value amounted to 63.6%. Moreover, in the data set on male rats, the “mean intromission interval (MII)” value is listed as 23.74. Besides, in the data set with male diabetic rats (male diabetic rats), the “ejaculation latency (EL)” value is 248.5 s, the “intromission frequency (IF)” value is listed as 4.3, the “intromission latency (IL)” value was 326.0 s and the “mount frequency (MF)” value is 10.6. In the data set on male diabetic rats (male diabetic rats), the “mount latency (ML)” value was 154.6 s and the “post-ejaculatory interval (PEI)” value is 510.5 s. Further, in the data set with male diabetic rats (male diabetic rats, CE=(IF/MF)x100), the “copulatory efficiency (CE)” value is listed as 41.1%. For the same compound, the “mean intromission interval (MII)” value with male diabetic rats (male diabetic rats, MII=EL/IF) was determined as 59.1. Also, the “sexual function in diabetic rats” value in the data set on male diabetic rats (versus diabetic control rats) is “restored”. For the same compound, the ED50 in data set [2] is 14.3 µmol/kg. In addition, the erectile response result in data set [2] (oral treatment, 1.25-5 mg/kg) is recorded as “statistically elevated”. Also, the “penile erection index (PEI)” value in data set [2] (dose 1.25 mg/kg) is 26.5 ± 6.6. Further, in data set [2] (dose 2.5 mg/kg), the “penile erection index (PEI)” value was 46.6 ± 3.3. Moreover, in data set [2] (dose 5 mg/kg), the “penile erection index (PEI)” value is on record as 63.3 ± 3.4. The LD50 at 24 h in data set [3] is above 2000 mg/kg. Moreover, the “toxic symptoms after oral dosing” value in the data set on rats was “gradually became drowsy and less responsive”.
The compound `O=S(=O)(c1ccc(Cl)c(Cl)c1)N1CCC(c2ccccc2)CC1` [Compound C11, 1-((3,4-Dichlorophenyl)sulfonyl)-4-phenylpiperidine] had a melting point of 217 to 219 °C. Moreover, the IC50 in data set [1] is 56.7 nM and 56.8 nM. Besides, in the data set on male rats, the “efficacy in improving copulatory behavior” value is on record as “more pronounced”, the “ejaculation latency (EL)” value was 318.1 s, the “intromission frequency (IF)” value was 8.3 and the “intromission latency (IL)” value was found to be 205.5 s. Besides, in the data set with male rats, the “mount frequency (MF)” value was 17.1, the “mount latency (ML)” value was found to be 94.6 s, the “post-ejaculatory interval (PEI)” value amounted to 393.5 s and the “copulatory efficiency (CE)” value is 48.5%. Besides, the “mean intromission interval (MII)” value with male rats worked out at 39.6. Also, the ED50 in data set [2] was found to be 12.7 µmol/kg.
As for `Cc1cc(C)c(S(=O)(=O)N2CCC(Cc3ccccc3)CC2)c(C)c1` [Compound C26, 4-Benzyl-1-(mesitylsulfonyl)piperidine], the melting point was 70 to 72 °C. The IC50 in data set [1] stood at 107 ± 2.09 nM.
Taken in the same sequence, the figures for `COc1ccc(S(=O)(=O)N2CCC(c3ccccc3)CC2)cc1OC` [Compound C2, 1-((3,4-Dimethoxyphenyl)sulfonyl)-4-phenylpiperidine] were 207 to 209 °C and 185 ± 3.61 nM.
